The results in this text go back to ChEMBL document CHEMBL4145577, “Cytotoxic Anthracycline Metabolites from a Recombinant Streptomyces” (J Nat Prod, 2018).

Each structure is given as a SMILES string.

The test system of one assay is MDA-MB-435. Briefly: Cytotoxicity against human MDA-MB-435 cells after 48 hrs by MTT assay. The class given is functional, cell-based. Conditions: MDA-MB-435, 48 h. A general note: Tetrazolium assays rely on reduction of a dye to a coloured formazan, in cell work by metabolically active cells.
The test system of another assay is NCI-H460. Briefly: Cytotoxicity against human NCI-H460 cells after 48 hrs by MTT assay. The class given is functional, cell-based. The following applies: NCI-H460, 48 h.
A further assay concerns MDA-MB-231. Briefly: Cytotoxicity against human MDA-MB-231 cells after 48 hrs by MTT assay. Format: functional, cell-based. The following applies: MDA-MB-231, 48 h.
For a further assay, the system named is HCT-116. Briefly: Cytotoxicity against human HCT116 cells after 48 hrs by MTT assay. The class given is functional, cell-based. The following applies: HCT-116, 48 h.
In a further assay the test system is HepG2. Briefly: Cytotoxicity against human HepG2 cells after 48 hrs by MTT assay. Format: functional, cell-based. The following applies: HepG2, 48 h.
The test system of another assay is MCF-10A. Briefly: Cytotoxicity against human MCF10A cells after 48 hrs by MTT assay. Format: cell-based.

Consider `CC[C@@]1(O)C[C@H](O)c2c(O)c3c(c(O)c2[C@H]1C(=O)OC)C(=O)c1cccc(O)c1C3=O`, for which the IC50 (as a rule, the concentration needed to halve the response being measured) with MDA-MB-435 was determined as 9.2 µM; with NCI-H460 it was 10 µM; with MDA-MB-231, 13.2 µM; with HCT-116, 9.6 µM; in the assay with HepG2, 13.5 µM; in the assay on MCF-10A, 7.1 µM.

As for `CC[C@@]1(O)C[C@H](O[C@H]2CC[C@H](O[C@H]3C[C@H](O)[C@H](O[C@H]4CC[C@H](O)[C@H](C)O4)[C@H](C)O3)[C@H](C)O2)c2c(O)c3c(c(O)c2[C@H]1O)C(=O)c1cccc(O)c1C3=O`, the IC50 in the assay on MDA-MB-435 is 3.1 µM; in the assay with NCI-H460 it was 1.6 µM; in the assay with MDA-MB-231, 24.5 µM; in the assay on HCT-116, 6.1 µM; with HepG2 it was 5.7 µM; in the assay with MCF-10A it was 6.7 µM.

In the case of `CC[C@@]1(O)C[C@H](O[C@H]2C[C@H](O)[C@H](O[C@H]3C[C@H](O)[C@H](O)[C@H](C)O3)[C@H](C)O2)c2c(O)c3c(c(O)c2[C@H]1O)C(=O)c1cccc(O)c1C3=O`, the concentration for half-maximal inhibition (IC50) in the assay on NCI-H460 stood at 0.6 µM; in the assay with MDA-MB-231, 10.2 µM; in the assay on HCT-116, 13.2 µM; in the assay with HepG2, 2 µM; in the assay with MCF-10A, 2.5 µM.

Consider `CC[C@@]1(O)C[C@H](O[C@H]2CC[C@H](O[C@H]3CC[C@H](O[C@H]4CC[C@H](O)[C@H](C)O4)[C@H](C)O3)[C@H](C)O2)c2c(O)c3c(c(O)c2[C@H]1C(=O)OC)C(=O)c1cccc(O)c1C3=O`, for which the IC50 in the assay with MDA-MB-435 came to 2.7 µM; with NCI-H460, 10 µM; in the assay with MDA-MB-231 it was 4.5 µM; with HCT-116 it was 0.2 µM; with HepG2, 1.7 µM; in the assay on MCF-10A, 1.4 µM.

Turning to `CC[C@]1(O)Cc2c(O)c3c(c(O)c2[C@@H](O[C@H]2C[C@H](O)[C@H](O[C@H]4C[C@H](O)[C@H](O[C@H]5CC[C@H](O)[C@H](C)O5)[C@H](C)O4)[C@H](C)O2)C1)C(=O)c1c(O)cccc1C3=O`, the IC50 was 6.2 µM in the assay with MDA-MB-435; 0.9 µM in the assay on NCI-H460; more than 50 µM in the assay with MDA-MB-231; 3.1 µM in the assay on HCT-116; 11.3 µM in the assay with HepG2; 16.9 µM in the assay with MCF-10A.

On to `CC[C@@]1(O)C[C@H](O[C@H]2C[C@H](O)[C@H](O[C@H]3C[C@H](O)[C@H](O[C@H]4C[C@H](O)[C@H](O)[C@H](C)O4)[C@H](C)O3)[C@H](C)O2)c2c(O)c3c(c(O)c2[C@H]1O)C(=O)c1cccc(O)c1C3=O`, for which the IC50 in the assay on MDA-MB-435 was 7 µM; with NCI-H460, 4.8 µM; in the assay on MDA-MB-231, 40.2 µM; with HCT-116, 9.8 µM; in the assay with HepG2, 8 µM; in the assay on MCF-10A it was 3.7 µM.

For `CC[C@@]1(O)C[C@H](O[C@H]2C[C@H](O)[C@H](O[C@H]3C[C@H](O)[C@H](O[C@H]4CCC(=O)[C@H](C)O4)[C@H](C)O3)[C@H](C)O2)c2c(O)c3c(c(O)c2[C@H]1O)C(=O)c1cccc(O)c1C3=O`, the IC50 amounted to 5.6 µM in the assay with MDA-MB-435; 0.38 µM in the assay on NCI-H460; 5.4 µM in the assay on MDA-MB-231; 1.4 µM in the assay on HCT-116; 0.9 µM with HepG2; 2 µM in the assay with MCF-10A.

On to `CC[C@@]1(O)C[C@H](O[C@H]2C[C@H](O)[C@H](O[C@H]3C[C@H](O)[C@H](O[C@H]4CC[C@H](O)[C@H](C)O4)[C@H](C)O3)[C@H](C)O2)c2c(O)c3c(c(O)c2[C@H]1O)C(=O)c1cccc(O)c1C3=O`, for which the IC50 turned out to be 0.7 µM in the assay with NCI-H460; 7.4 µM in the assay on MDA-MB-231; 5 µM with HCT-116; 1.5 µM in the assay with HepG2; 3.4 µM in the assay with MCF-10A.

In the case of `CC[C@@]1(O)C[C@H](O[C@H]2C[C@H](O)[C@H](O[C@H]3CC[C@H](O[C@H]4CC[C@H](O)[C@H](C)O4)[C@H](C)O3)[C@H](C)O2)c2c(O)c3c(c(O)c2[C@H]1O)C(=O)c1cccc(O)c1C3=O`, the IC50 with MDA-MB-435 amounted to 11.7 µM; with NCI-H460, 1.3 µM; in the assay on MDA-MB-231, 10.4 µM; in the assay on HCT-116 it was 32.8 µM; in the assay on HepG2, 5.5 µM; in the assay on MCF-10A, 5.2 µM.

Take `CC[C@@]1(O)C[C@H](O[C@H]2CC[C@H](O[C@H]3C[C@H](O)[C@H](O[C@H]4CC[C@H](O)[C@H](C)O4)[C@H](C)O3)[C@H](C)O2)c2c(O)c3c(c(O)c2[C@H]1C(=O)OC)C(=O)c1cccc(O)c1C3=O`: the concentration for half-maximal inhibition (IC50) amounted to 1.9 µM in the assay on MDA-MB-435; 5.7 µM with NCI-H460; 9.3 µM in the assay with MDA-MB-231; 3.6 µM with HCT-116; 6.4 µM in the assay with HepG2; 4.6 µM with MCF-10A.

`CC[C@@]1(O)C[C@H](O[C@H]2C[C@H](O)[C@H](O[C@H]3CC[C@H](O[C@H]4CC[C@H](OC5CC[C@H](O)[C@H](C)O5)[C@H](C)O4)[C@H](C)O3)[C@H](C)O2)c2c(O)c3c(c(O)c2[C@H]1O)C(=O)c1cccc(O)c1C3=O` (stereo partly drawn): the IC50 in the assay with MDA-MB-435 stood at 37.9 µM; with NCI-H460, 2.2 µM; in the assay with MDA-MB-231 it was 10.1 µM; with HCT-116, 7.2 µM; with HepG2 it was 8.5 µM; in the assay with MCF-10A, 5.7 µM.

Take `CC[C@@]1(O)C[C@H](O[C@H]2C[C@H](O)[C@H](O[C@H]3CC[C@H](O[C@H]4C[C@H](O)[C@H](O)[C@H](C)O4)[C@H](C)O3)[C@H](C)O2)c2c(O)c3c(c(O)c2[C@H]1O)C(=O)c1cccc(O)c1C3=O`: the IC50 in the assay on MDA-MB-435 was 5.9 µM; in the assay with NCI-H460 it was 2.6 µM; in the assay with MDA-MB-231, 19.2 µM; with HCT-116, 5.8 µM; in the assay on HepG2, 6.2 µM; in the assay with MCF-10A, 10.5 µM.

In the case of `CC[C@]1(O)Cc2c(O)c3c(c(O)c2[C@@H](O[C@H]2C[C@H](O)[C@H](O[C@H]4CC[C@H](O[C@H]5CC[C@H](O)[C@H](C)O5)[C@H](C)O4)[C@H](C)O2)C1)C(=O)c1c(O)cccc1C3=O`, the IC50 in the assay on MDA-MB-435 is 4.2 µM; in the assay with NCI-H460, 5.4 µM; with MDA-MB-231 it was more than 50 µM; with HCT-116 it was 0.3 µM; with HepG2, 8.6 µM; in the assay with MCF-10A it was 2.2 µM.

As to `CC[C@@]1(O)C[C@H](O[C@H]2CC[C@H](O[C@H]3C[C@H](O)[C@H](O[C@H]4CCC(=O)[C@H](C)O4)[C@H](C)O3)[C@H](C)O2)c2c(O)c3c(c(O)c2[C@H]1O)C(=O)c1cccc(O)c1C3=O`, the IC50 in the assay on MDA-MB-435 is 3.9 µM; in the assay on NCI-H460, 2.4 µM; with MDA-MB-231 it was 23.9 µM; in the assay with HCT-116 it was 5.4 µM; in the assay on HepG2, 9.3 µM; with MCF-10A, 10.4 µM.

As for `CC[C@@]1(O)CCc2c(O)c3c(c(O)c2[C@H]1O)C(=O)c1cccc(O)c1C3=O`, the IC50 in the assay with MDA-MB-435 worked out at 5.7 µM; with NCI-H460, 7.3 µM; with MDA-MB-231 it was 10.9 µM; in the assay with HCT-116, 6 µM; in the assay on HepG2, 13 µM; in the assay on MCF-10A, 11.9 µM.

As to `COc1cccc2c1C(=O)c1c(O)c3c(c(O)c1C2=O)C[C@@](O)(C(=O)CO)C[C@@H]3O[C@H]1C[C@H](N)[C@@H](O)[C@H](C)O1` [EPIRUBICIN], the half-inhibitory concentration (IC50) in the assay on MDA-MB-435 is 0.7 µM; in the assay on NCI-H460, 0.02 µM; with MDA-MB-231 it was 0.9 µM; with HCT-116, 0.4 µM; with MCF-10A, 0.1 µM.
